Source: ChEMBL document CHEMBL4038335, “Neuroactive Steroids. 2. 3α-Hydroxy-3β-methyl-21-(4-cyano-1H-pyrazol-1'-yl)-19-nor-5β-pregnan-20-one (SAGE-217): A Clinical Next Generation Neuroactive Steroid Positive Allosteric Modulator of the (γ-Aminobutyric Acid)A Receptor” (J Med Chem, 2017)
Values after ≈ are worked out from the molar mass of the structure shown.

Experiments:
[1] = Oral bioavailability in CD1 mouse at 20 mg/kg measured up to 8 hrs post dose by LC/MS-MS analysis; format: ADME, organism-based; details: in vivo
[2] = molecular target: Cytochrome P450 2C9 (Homo sapiens, UniProt P11712); test: Inhibition of CYP2C9 (unknown origin); format: ADME
[3] = molecular target: Inward rectifier potassium channel 2 (Homo sapiens, UniProt P63252); test: Inhibition of Kir2.1 (unknown origin) by patch clamp assay
[4] = molecular target: Glycine receptor subunit alpha-1 (Homo sapiens) (UniProt P23415); test: Binding affinity to human glycine alpha 1 receptor expressed in HEK293 cells at 10 uM by IonFlux based assay; format: cell-based
[5] = molecular target: Potassium/sodium hyperpolarization-activated cyclic nucleotide-gated channel 2 (Homo sapiens, UniProt Q9UL51); test: Inhibition of HCN2 (unknown origin) by patch clamp assay
[6] = Clearance in dog hepatic microsomes at 10 uM preincubated for 5 mins followed by NADPH addition measured over 60 mins by HPLC-MS/MS analysis; format: ADME, Canis lupus familiaris, Liver, Microsome; details: 1 h
[7] = system: Mus musculus; test: Anticonvulsant activity in PTZ-induced seizure mouse model at 0.3 to 3 mg/kg, ip; format: functional
[8] = molecular target: Transient receptor potential cation channel subfamily V member 1 (Homo sapiens) (UniProt Q8NER1); test: Antagonist activity at human TRPV1 expressed in CHOK1 cells assessed as inhibition of capsaicin-induced Ca2+ flux at 10 uM by spectrophotometric analysis; format: cell-based
[9] = Protein binding in dog plasma at 10 uM after 6 hrs by equilibrium dialysis; format: ADME, cell-free, Canis lupus familiaris; details: read-out: PPB (converted)
[10] = Protein binding in rat plasma at 10 uM after 6 hrs by equilibrium dialysis; format: ADME, cell-free; details: read-out: PPB (converted)
[11] = Clearance in Sprague-Dawley rat at 5 mg/kg, iv or 20 mg/kg, po measured up to 8 hrs post dose by LC/MS-MS analysis; format: ADME, organism-based; details: in vivo
[12] = molecular target: Voltage-gated potassium channel, IKs; KCNQ1(Kv7.1)/KCNE1(MinK) (Homo sapiens, UniProt P15382+P51787); test: Inhibition of KCNQ1/minK (unknown origin) by patch clamp assay
[13] = molecular target: Voltage-dependent L-type calcium channel subunit alpha-1C (Homo sapiens, UniProt Q13936); test: Inhibition of Cav1.2 (unknown origin) by patch clamp assay
[14] = Clearance in mouse hepatic microsomes at 10 uM preincubated for 5 mins followed by NADPH addition measured over 60 mins by HPLC-MS/MS analysis; format: ADME, Microsome; details: liver microsomes
[15] = molecular target: Voltage-gated inwardly rectifying potassium channel KCNH2 (Homo sapiens, UniProt Q12809); test: Inhibition of human ERG by patch clamp assay
[16] = Protein binding in mouse plasma at 10 uM after 6 hrs by equilibrium dialysis; format: ADME, cell-free; details: read-out: PPB
[17] = molecular target: GABA-A receptor; alpha-1/beta-2/gamma-2 (Homo sapiens) (UniProt P14867+P47870+P18507); test: (§1) Positive allosteric modulation of GABAA receptor alpha1beta2gamma2 (unknown origin) expressed in mouse LTK cells assessed as potentiation of GABA-mediated increase in channel current under holding potential at -80 mV at 0.01 to 10 uM preincubated for 30 secs followed by GABA stimulation for 2 secs by automated patch clamp assay relative to GABA; format: cell-based
[18] = Clearance in rat hepatic microsomes at 10 uM preincubated for 5 mins followed by NADPH addition measured over 60 mins by HPLC-MS/MS analysis; format: ADME, Microsome; details: liver microsomes
[19] = Clearance in human hepatic microsomes at 10 uM preincubated for 5 mins followed by NADPH addition measured over 60 mins by HPLC-MS/MS analysis; format: ADME, Microsome; details: liver microsomes
[20] = molecular target: Gamma-aminobutyric acid receptor subunit alpha-4/beta3/delta (Homo sapiens, UniProt O14764+P28472+P48169); test: as §1, with “alpha4beta3delta” for “alpha1beta2gamma2”, “CHO” for “mouse LTK”, “mV” for “mV at 0.01 to 10 uM”, “manual” for “automated”, “assay” for “assay relative to GABA”; format: cell-based
[21] = Displacement of [35S]TBPS from GABA-A receptor in Sprague-Dawley rat cerebral cortex cell membranes after 90 mins in presence of GABA by liquid scintillation counting
[22] = Clearance in CD1 mouse at 5 mg/kg, iv or 20 mg/kg, po measured up to 8 hrs post dose by LC/MS-MS analysis; format: ADME, organism-based; details: in vivo
[23] = molecular target: Sigma non-opioid intracellular receptor 1 (Homo sapiens) (UniProt Q99720); test: Displacement of [3H](+)pentazocine from human sigma1-receptor at 10 uM after 120 mins by scintillation counting
[24] = Protein binding in human plasma at 10 uM after 6 hrs by equilibrium dialysis; format: ADME, cell-free; details: read-out: PPB (converted)
[25] = Oral bioavailability in Sprague-Dawley rat at 20 mg/kg measured up to 8 hrs post dose by LC/MS-MS analysis; format: ADME, organism-based; details: in vivo
[26] = Clearance in Beagle dog at 5 mg/kg, iv or 20 mg/kg, po measured up to 8 hrs post dose by LC/MS-MS analysis; format: ADME, organism-based, Canis lupus familiaris; details: in vivo
[27] = Thermodynamic aqueous solubility of compound at 10 uM sonicated for 1 min followed by incubation for 1 hr by HPLC-MS/MS; format: physicochemical; details: buffer; read-out: Therm_solubility
[28] = molecular target: Potassium voltage-gated channel subfamily A member 5 (Homo sapiens, UniProt P22460); test: Inhibition of Kv1.5 (unknown origin) by patch clamp assay
[29] = molecular target: Kv channel-interacting protein 2/Potassium voltage-gated channel subfamily D member 3 (Homo sapiens, UniProt Q9NS61+Q9UK17); test: Inhibition of Kv4.3(unknown origin)/KChIP2.2 (unknown origin) by patch clamp assay
[30] = molecular target: Cytochrome P450 2C19 (Homo sapiens, UniProt P33261); test: Inhibition of CYP2C19 (unknown origin); format: ADME
[31] = Ratio of drug level in Sprague-Dawley rat brain to plasma at 5 mg/kg, iv measured at 30 mins post dose by LC/MS-MS analysis; format: ADME, organism-based; details: read-out: BPR
[32] = Clearance in mouse hepatocytes at 10 uM preincubated for 5 mins […] measured over 60 mins by HPLC-MS/MS analysis; format: ADME, cell-based, Hepatocyte; details: read-out: CLH (converted)
[33] = Clearance in human hepatocytes at 10 uM preincubated for 5 mins […] measured over 60 mins by HPLC-MS/MS analysis; format: ADME, cell-based, Hepatocyte; details: 1 h
[34] = molecular target: Cytochrome P450 3A4 (Homo sapiens, UniProt P08684); test: Inhibition of CYP3A4 (unknown origin); format: ADME
[35] = molecular target: Cytochrome P450 1A2 (Homo sapiens, UniProt P05177); test: Inhibition of CYP1A2 (unknown origin); format: ADME
[36] = Oral bioavailability in Beagle dog at 20 mg/kg measured up to 8 hrs post dose by LC/MS-MS analysis; format: ADME, organism-based, Canis lupus familiaris; details: in vivo
[37] = system: Canis familiaris; test: Clearance in Beagle dog at 5 mg/kg, iv or 20 mg/kg, po measured up to 8 hrs post dose by LC/MS-MS analysis relative to hepatic blood flow; format: ADME, organism-based, Canis lupus familiaris; details: in vivo
[38] = molecular target: Sodium channel protein type 5 subunit alpha (Homo sapiens, UniProt Q14524); test: Inhibition of Nav1.5 (unknown origin) by patch clamp assay
[39] = molecular target: GABA-A receptor alpha-4/beta-3/delta (Homo sapiens, UniProt P28472+P48169+); test: as §1, with “alpha4beta3delta” for “alpha1beta2gamma2”, “CHO” for “mouse LTK”, “manual” for “automated”; format: cell-based; details: 2 s
[40] = Lipophilicity, logD of compound at 20 uM at pH 7.4 by HPLC/MS-MS analysis; format: physicochemical; details: buffer
[41] = Clearance in rat hepatocytes at 10 uM preincubated for 5 mins […] measured over 60 mins by HPLC-MS/MS analysis; format: ADME, cell-based, Hepatocyte; details: 1 h
[42] = Clearance in dog hepatocytes at 10 uM preincubated for 5 mins […] measured over 60 mins by HPLC-MS/MS analysis; format: ADME, cell-based, Canis lupus familiaris, Hepatocyte; details: 1 h
[43] = molecular target: Cytochrome P450 2B6 (Homo sapiens, UniProt P20813); test: Inhibition of CYP2B6 (unknown origin); format: ADME
[44] = molecular target: Cytochrome P450 2D6 (Homo sapiens, UniProt P10635); test: Inhibition of CYP2D6 (unknown origin); format: ADME
Sequence of Cytochrome P450 2D6 (P10635 whole entry): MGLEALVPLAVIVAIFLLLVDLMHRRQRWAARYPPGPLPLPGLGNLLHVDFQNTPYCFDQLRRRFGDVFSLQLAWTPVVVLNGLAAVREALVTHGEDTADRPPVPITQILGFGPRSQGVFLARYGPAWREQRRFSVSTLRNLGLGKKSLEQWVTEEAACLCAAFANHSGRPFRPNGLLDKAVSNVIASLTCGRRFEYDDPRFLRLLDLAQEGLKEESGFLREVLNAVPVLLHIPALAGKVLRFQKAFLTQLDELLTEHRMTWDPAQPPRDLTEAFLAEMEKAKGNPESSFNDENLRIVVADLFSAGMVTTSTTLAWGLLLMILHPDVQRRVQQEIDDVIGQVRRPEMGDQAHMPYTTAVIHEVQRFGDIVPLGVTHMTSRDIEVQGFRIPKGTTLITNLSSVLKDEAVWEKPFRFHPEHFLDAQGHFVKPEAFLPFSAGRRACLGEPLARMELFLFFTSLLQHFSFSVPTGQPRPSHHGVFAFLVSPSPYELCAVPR

Sequence of Cytochrome P450 2B6 (P20813 whole entry): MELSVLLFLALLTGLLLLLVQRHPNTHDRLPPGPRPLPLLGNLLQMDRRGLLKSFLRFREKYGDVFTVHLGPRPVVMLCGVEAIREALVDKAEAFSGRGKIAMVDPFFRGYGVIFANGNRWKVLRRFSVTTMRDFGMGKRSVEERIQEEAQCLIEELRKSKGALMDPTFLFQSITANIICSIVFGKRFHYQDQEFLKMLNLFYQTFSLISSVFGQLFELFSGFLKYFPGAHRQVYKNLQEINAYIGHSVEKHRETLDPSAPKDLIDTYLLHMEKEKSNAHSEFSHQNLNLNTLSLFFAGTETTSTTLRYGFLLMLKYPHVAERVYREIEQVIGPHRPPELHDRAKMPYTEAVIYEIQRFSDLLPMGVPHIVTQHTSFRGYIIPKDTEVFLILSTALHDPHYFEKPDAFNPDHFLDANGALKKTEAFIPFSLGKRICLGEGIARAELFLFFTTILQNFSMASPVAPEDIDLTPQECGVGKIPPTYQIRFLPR
Sequence of Kv channel-interacting protein 2/Potassium voltage-gated channel subfamily D member 3 (Q9UK17 whole entry): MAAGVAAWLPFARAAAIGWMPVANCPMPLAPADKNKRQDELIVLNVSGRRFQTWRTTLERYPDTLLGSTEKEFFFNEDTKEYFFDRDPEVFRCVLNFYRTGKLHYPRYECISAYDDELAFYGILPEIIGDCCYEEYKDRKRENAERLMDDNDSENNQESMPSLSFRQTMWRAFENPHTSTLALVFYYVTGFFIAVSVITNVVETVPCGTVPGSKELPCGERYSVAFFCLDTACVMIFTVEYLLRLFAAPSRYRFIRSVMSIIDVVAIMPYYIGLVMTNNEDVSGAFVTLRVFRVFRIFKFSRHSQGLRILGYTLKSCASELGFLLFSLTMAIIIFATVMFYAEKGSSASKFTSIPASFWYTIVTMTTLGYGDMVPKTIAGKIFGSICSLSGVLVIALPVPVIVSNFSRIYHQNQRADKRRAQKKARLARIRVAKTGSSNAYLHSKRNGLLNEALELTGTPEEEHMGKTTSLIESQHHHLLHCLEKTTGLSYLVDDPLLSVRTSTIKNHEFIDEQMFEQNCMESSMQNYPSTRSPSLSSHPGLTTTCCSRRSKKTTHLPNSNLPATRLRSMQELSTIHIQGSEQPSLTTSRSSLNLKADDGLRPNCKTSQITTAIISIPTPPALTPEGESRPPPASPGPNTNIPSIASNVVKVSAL
Sequence of Kv channel-interacting protein 2/Potassium voltage-gated channel subfamily D member 3 (Q9NS61 whole entry): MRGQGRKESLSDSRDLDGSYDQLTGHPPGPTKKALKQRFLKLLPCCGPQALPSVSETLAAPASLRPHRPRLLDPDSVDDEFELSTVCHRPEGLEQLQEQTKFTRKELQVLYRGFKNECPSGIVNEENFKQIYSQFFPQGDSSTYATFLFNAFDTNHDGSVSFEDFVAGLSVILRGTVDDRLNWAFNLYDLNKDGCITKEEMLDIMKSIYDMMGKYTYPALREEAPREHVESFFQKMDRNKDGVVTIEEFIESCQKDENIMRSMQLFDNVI
Sequence of Transient receptor potential cation channel subfamily V member 1 (Homo sapiens) (Q8NER1 whole entry): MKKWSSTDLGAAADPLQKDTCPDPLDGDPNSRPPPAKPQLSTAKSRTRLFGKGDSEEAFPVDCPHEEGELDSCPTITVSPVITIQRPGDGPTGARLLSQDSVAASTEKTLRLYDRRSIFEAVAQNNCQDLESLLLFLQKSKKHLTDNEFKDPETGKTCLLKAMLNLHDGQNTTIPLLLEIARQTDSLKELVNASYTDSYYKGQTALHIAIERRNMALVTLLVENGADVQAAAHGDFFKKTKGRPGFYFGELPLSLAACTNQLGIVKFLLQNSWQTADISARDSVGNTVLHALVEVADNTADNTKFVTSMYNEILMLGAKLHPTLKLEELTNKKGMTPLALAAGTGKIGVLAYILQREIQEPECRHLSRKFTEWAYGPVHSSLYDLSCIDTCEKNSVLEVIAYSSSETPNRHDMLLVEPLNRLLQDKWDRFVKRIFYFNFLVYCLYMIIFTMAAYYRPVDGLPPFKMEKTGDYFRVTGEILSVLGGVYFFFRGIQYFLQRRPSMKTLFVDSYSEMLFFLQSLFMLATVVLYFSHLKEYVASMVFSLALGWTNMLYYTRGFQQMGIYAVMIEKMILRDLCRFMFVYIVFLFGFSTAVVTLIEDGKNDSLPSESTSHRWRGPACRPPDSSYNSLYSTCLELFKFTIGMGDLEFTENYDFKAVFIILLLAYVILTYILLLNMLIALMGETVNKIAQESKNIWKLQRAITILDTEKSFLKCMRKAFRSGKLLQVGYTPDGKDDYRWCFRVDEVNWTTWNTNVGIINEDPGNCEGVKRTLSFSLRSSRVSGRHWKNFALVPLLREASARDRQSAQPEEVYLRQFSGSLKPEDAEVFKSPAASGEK
Sequence of Potassium voltage-gated channel subfamily A member 5 (P22460 whole entry): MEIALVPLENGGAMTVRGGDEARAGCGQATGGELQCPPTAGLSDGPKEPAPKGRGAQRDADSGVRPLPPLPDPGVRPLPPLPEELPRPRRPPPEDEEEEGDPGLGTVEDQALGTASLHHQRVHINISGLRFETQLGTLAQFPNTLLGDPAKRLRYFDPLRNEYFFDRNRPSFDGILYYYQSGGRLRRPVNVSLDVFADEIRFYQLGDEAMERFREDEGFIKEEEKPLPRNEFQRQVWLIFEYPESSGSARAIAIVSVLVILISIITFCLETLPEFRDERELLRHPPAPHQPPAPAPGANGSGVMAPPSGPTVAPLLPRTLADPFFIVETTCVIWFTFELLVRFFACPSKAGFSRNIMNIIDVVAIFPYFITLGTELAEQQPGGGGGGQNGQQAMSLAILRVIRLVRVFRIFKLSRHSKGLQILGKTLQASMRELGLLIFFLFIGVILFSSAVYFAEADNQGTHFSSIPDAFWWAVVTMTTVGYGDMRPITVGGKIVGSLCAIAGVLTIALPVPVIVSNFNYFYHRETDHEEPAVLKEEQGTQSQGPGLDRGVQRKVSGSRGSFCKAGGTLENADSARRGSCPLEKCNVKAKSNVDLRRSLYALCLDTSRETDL
Sequence of Glycine receptor subunit alpha-1 (Homo sapiens) (P23415 whole entry): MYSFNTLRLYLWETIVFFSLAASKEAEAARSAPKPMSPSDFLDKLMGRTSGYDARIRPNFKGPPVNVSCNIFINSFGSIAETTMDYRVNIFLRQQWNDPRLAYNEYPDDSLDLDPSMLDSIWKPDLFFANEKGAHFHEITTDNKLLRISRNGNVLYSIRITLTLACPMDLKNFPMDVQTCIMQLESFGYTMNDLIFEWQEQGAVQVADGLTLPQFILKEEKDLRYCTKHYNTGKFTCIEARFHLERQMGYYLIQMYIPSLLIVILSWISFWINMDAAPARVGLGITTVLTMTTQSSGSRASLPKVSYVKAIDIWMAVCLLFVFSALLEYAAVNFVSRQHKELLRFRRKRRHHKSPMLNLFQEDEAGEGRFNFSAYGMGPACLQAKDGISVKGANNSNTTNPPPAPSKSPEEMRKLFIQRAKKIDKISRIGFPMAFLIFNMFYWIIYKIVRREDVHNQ
Sequence of Voltage-gated potassium channel, IKs; KCNQ1(Kv7.1)/KCNE1(MinK) (P51787 whole entry): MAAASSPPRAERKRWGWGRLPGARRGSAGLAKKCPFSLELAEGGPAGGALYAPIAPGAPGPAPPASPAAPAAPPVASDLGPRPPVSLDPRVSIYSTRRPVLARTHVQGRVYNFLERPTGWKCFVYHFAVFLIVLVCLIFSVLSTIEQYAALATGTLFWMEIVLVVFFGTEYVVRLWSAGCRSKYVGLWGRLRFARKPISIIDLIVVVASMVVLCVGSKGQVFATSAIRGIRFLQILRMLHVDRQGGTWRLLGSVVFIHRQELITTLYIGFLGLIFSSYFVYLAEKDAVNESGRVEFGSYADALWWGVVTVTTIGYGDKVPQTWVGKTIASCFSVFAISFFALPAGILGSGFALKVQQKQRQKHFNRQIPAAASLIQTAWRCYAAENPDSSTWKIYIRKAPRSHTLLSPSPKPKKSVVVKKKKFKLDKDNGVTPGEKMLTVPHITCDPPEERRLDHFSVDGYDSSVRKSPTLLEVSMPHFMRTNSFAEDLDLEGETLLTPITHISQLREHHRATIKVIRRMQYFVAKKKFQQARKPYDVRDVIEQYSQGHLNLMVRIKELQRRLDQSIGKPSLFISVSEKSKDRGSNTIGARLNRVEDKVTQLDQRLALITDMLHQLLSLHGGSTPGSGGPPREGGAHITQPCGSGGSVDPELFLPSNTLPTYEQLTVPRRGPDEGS
Sequence of Sigma non-opioid intracellular receptor 1 (Homo sapiens) (Q99720 whole entry): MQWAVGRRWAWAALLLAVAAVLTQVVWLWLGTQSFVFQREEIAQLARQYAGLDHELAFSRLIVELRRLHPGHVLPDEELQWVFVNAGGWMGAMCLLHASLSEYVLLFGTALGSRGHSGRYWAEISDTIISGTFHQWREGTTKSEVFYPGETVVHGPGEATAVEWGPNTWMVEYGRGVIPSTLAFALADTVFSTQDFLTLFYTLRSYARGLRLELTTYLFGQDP

Work on `C[C@@]1(O)CC[C@H]2[C@H](CC[C@@H]3[C@@H]2CC[C@]2(C)[C@@H](C(=O)Cn4cc(C#N)cn4)CC[C@@H]32)C1` [ZURANOLONE] yielded a bioavailability [1] of 62%, an IC50 [2] greater than 30 µM and an IC50 [3] greater than 30 µM. The Activity [4] was 57%, the IC50 [5] was greater than 30 µM and the CLH [6] was 10 mL/min/kg. It also gave an MEC [7] of 85 nM, an inhibition [8] of 95% and a fraction unbound at 6 h, 10 µM [9] of 0.016. For the same compound, the fraction unbound at 6 h, 10 µM [10] was 0.012, the clearance [11] was 23.3 mL/min/kg and the IC50 [12] was greater than 30 µM. It also gave an IC50 [13] greater than 30 µM, a CLhep predicted at 10 µM [14] of 70 mL/min/kg and an IC50 [15] greater than 30 µM. It also gave a fraction unbound at 6 h, 10 µM [16] of 0.01, an Emax [17] of 473% and a CLhep predicted at 10 µM [18] of 36.7 mL/min/kg. The CLhep predicted at 10 µM [19] was 3.33 mL/min/kg, the EC50 [20] was 0.299 µM and the IC50 [21] was 0.007 µM. For the same compound, the clearance [22] was 25 mL/min/kg, the inhibition [23] was 88% and the fraction unbound at 6 h, 10 µM [24] was 0.012. The bioavailability [25] was 32%, the clearance [26] was 1.67 mL/min/kg and the solubility thermodynamic at 1 h, 10 µM [27] was 2 µM (≈ 0.819 µg/mL). For the same compound, the IC50 [28] was greater than 30 µM, the IC50 [29] was greater than 30 µM and the IC50 [30] was greater than 30 µM. The Kp at 0.5 h [31] was 4.2, the CLint scaled at 10 µM [32] was 102 mL/min/kg and the CLH [33] was 15 mL/min/kg. The IC50 [34] was greater than 30 µM, the IC50 [35] was greater than 30 µM and the bioavailability [36] was 68%. The CL [37] was less than 10%, the IC50 [38] was greater than 30 µM and the Emax [39] was 574%. For the same compound, the logD at 20 µM [40] was 4.6, the CLH [41] was 17 mL/min/kg and the CLH [42] was 10 mL/min/kg. The IC50 [43] was greater than 30 µM and the IC50 [44] was greater than 30 µM.
